Assay results as given in patent US20190216956A1, “COMPOSITIONS FOR RADIOTHERAPY AND USES THEREOF” (priority 2016, published 2019).
Where “and” joins values, the source holds several entries; their conditions need not be identical. Identical values can stand only once.

Experiments:
NCI-28H cells [1] = assay: Cytotoxicity assay (MTS) of NCI-28H cells: doxorubicin, cisplatin, paclitaxel, talc, talc bound to drugs (Example 21); assay type: cell-based; conditions: for AVERAGE: cells + DOX / % survival from untreated by DOX cells / % survival (cells + drug) / Average readings: cells + drug / Average reading: cells + cisplatin / % survival from untreated cells (cells + cisplatin): NCI-28H cells; for AVERAGE: cells + DOX / Average readings: cells + drug / Average reading: cells + cisplatin: absorbance 490 nm
Description: Read absorbance (MTS assay) and calculate cells survival rate. Compare survival rate between each formulation.
1. Set up 3 cytotoxicity plates for Day 2 experiment: trypsinize NCI-28H cells (T-75 flask, passage 12): • Remove old medium, wash cells with 7 ml DPBS, remove DPBS, add 2 ml trypsin, incubate plates for 1-2′, when cells detached add 6 ml fresh medium, mix cells and medium. • Count cells under the microscope using the glass slide. […] If we need 200 wells, in each well will be 5,000 cells in 0.1 ml; so total we need 1,000,000 cells in 20 ml. […] In 50 ml Falcon tube, combine 16.6 ml fresh medium and 3.4 ml cells. Gently mix.
3. […] Final solution is 500 μL of 20 μM.
(§1) 1. Centrifuge tubes at 3200 rpm for 3 min. Take out supernatant.
6. Check the plate and start incubation at 37° C./5% CO2
3. Wash cells 1×300 μL media, remove final wash.

NCI-28H cells [2] = assay: Cytotoxicity assay (MTS) of NCI-28H cells: carboplatin, mitomycin, gemcitabine, talc, talc bound to drugs (Example 22); conditions: for % survival from untreated cells: cells + drug, gemcitabine / Average reading: cells + drug, gemcitabine / % survival from untreated cells: cells + drug, carboplatin / Average reading: cells + drug, carboplatin: NCI-28H cells; for Average reading: cells + drug, gemcitabine / Average reading: cells + drug, carboplatin: absorbance 490 nm
Description: Read absorbance (MTS assay) and calculate cells survive rate. Compare survival rate
1. Set up 3 cytotoxicity plates for tomorrow experiment: trypsinize NCI-28H cells (T-75 flask, passage 12): • Remove old medium, wash cells with 7 ml DPBS, remove DPBS, add 2 ml trypsin, incubate plates for 1-2′, when cells detached add 6 ml fresh medium, mix cells and medium. • Count cells under the microscope using the glass slide. […] If we need 200 wells, in each well will be 5,000 cells in 0.1 ml; so total we need 1,000,000 cells in 20 ml.
2. […] Final solution is 500 μL of 500 μM carboplatin.
4. […] Final solution is 500 μL of 200 μM Gemcitabine.
as §1
3. Add 100 μL of each 8 preparations of diluted carboplatin (step 1 and 2) to the proper wells according to a plate layout.
4. Add 100 μL of each 8 preparations of diluted Gemcitabine (step 1, 2, 3) to the proper wells according to a plate layout.
6. Check the plate and start incubation at 37° C./5% CO2.
3. Wash all cells 1×300 μL DPBS, remove final wash.

NCI-2052H cells = assay: Cytotoxicity assay (MTS) of NCI-2052H cells: bleomycin, mitomycin, doxorubicin, paclitaxel, talc, talc bound to drugs (Example 23); assay type: cell-based; conditions: for Average reading: cells + drug, paclitaxel: absorbance 490 nm

Which results are given for `COc1cccc2c1C(=O)c1c(O)c3c(c(O)c1C2=O)C[C@@](O)(C(=O)CO)C[C@@H]3O[C@H]1C[C@H](N)[C@H](O)[C@H](C)O1` [DOX]?
% survival NCI-28H cells after different treatment (compare to untreated cells) (NCI-28H cells [1]; 125 nM DOX): 70%; AVERAGE: cells + DOX (NCI-28H cells [1]; DOX 0.000064 μM): 1.18; AVERAGE: cells + DOX (NCI-28H cells [1]; DOX 0.2 μM): 0.89; AVERAGE: cells + DOX (NCI-28H cells [1]; DOX 1 μM): 0.67; AVERAGE: cells + DOX (NCI-28H cells [1]; DOX 5 μM): 0.63

`Nc1ccn([C@@H]2O[C@H](CO)[C@@H](O)C2(F)F)c(=O)n1` [gemcitabine] was tested. Which “cytotoxic effect on NCI-28H cells (comparison)” value (NCI-28H cells [2]) did it give?
Its value is “clear cytotoxic effect”.

What about the “% survival from untreated cells: cells + drug, gemcitabine” value (shortened to “% survival … gemcitabine”) (NCI-28H cells [2]; gemcitabine 0.0026 μM) of the same compound?
Its value is 114.61%.

What about the “Average reading: cells + drug, gemcitabine” value (“Average reading … gemcitabine” for short) (NCI-28H cells [2]; gemcitabine 0.0026 μM) of the same compound?
The value was 2.034.

And the “% survival … gemcitabine” value (NCI-28H cells [2]; gemcitabine 0.013 μM)?
Its value is 107.85%.

What about the “Average reading … gemcitabine” value (NCI-28H cells [2]; gemcitabine 0.013 μM) of the same compound?
Its value is 1.914.

And the “% survival … gemcitabine” value (NCI-28H cells [2]; gemcitabine 0.064 μM)?
Its value is 80.60%.

And the “Average reading … gemcitabine” value (NCI-28H cells [2]; gemcitabine 0.064 μM)?
Its value is 1.43.

What about the “% survival … gemcitabine” value (NCI-28H cells [2]; gemcitabine 8 μM) of the same compound?
Its value is 56.58%.

What about the “Average reading … gemcitabine” value (NCI-28H cells [2]; gemcitabine 8 μM) of the same compound?
Its value is 1.004.

What about the “% survival … gemcitabine” value (NCI-28H cells [2]; gemcitabine 40 μM) of the same compound?
Its value is 60.09%.

And the “Average reading … gemcitabine” value (NCI-28H cells [2]; gemcitabine 40 μM)?
The value was 1.0663.

What about the “% survival … gemcitabine” value (NCI-28H cells [2]; gemcitabine 200 μM) of the same compound?
Its value is 52.70%.

What about the “Average reading … gemcitabine” value (NCI-28H cells [2]; gemcitabine 200 μM) of the same compound?
Its value is 0.9352.

`COc1cccc2c1C(=O)c1c(O)c3c(c(O)c1C2=O)C[C@@](O)(C(=O)CO)C[C@@H]3O[C@H]1C[C@H](N)[C@H](O)[C@H](C)O1` [Dox] was tested. Which “% survival from untreated by DOX cells” value (NCI-28H cells [1]; Dox 0.064 nM) did it give?
Its value is 86.3%.

What about the “% survival from untreated by DOX cells” value (NCI-28H cells [1]; Dox 8 nM) of the same compound?
Its value is 83.4%.

And the “% survival from untreated by DOX cells” value (NCI-28H cells [1]; Dox 40 nM)?
Its value is 77.4%.

And the “% survival from untreated by DOX cells” value (NCI-28H cells [1]; Dox 200 nM)?
The value was 65.0%.

What about the “% survival from untreated by DOX cells” value (NCI-28H cells [1]; Dox 1000 nM) of the same compound?
The value was 48.6%.

What about the “% survival from untreated by DOX cells” value (NCI-28H cells [1]; Dox 5000 nM) of the same compound?
The value was 46.2%.

Which results are given for `CC(=O)O[C@H]1C(=O)[C@@]2(C)[C@H]([C@H](OC(=O)c3ccccc3)[C@]3(O)C[C@H](OC(=O)[C@H](O)[C@@H](NC(=O)c4ccccc4)c4ccccc4)C(C)=C1C3(C)C)[C@]1(OC(C)=O)CO[C@@H]1C[C@@H]2O` [Paclitaxel]?
Average reading: cells + drug, paclitaxel (NCI-2052H cells; Paclitaxel 0.256 nM): 1.4273; Average reading: cells + drug, paclitaxel (NCI-2052H cells; Paclitaxel 6.4 nM): 1.54; Average reading: cells + drug, paclitaxel (NCI-2052H cells; Paclitaxel 32 nM): 0.5818; Average reading: cells + drug, paclitaxel (NCI-2052H cells; Paclitaxel 160 nM): 0.4361; Average reading: cells + drug, paclitaxel (NCI-2052H cells; Paclitaxel 800 nM): 0.4326; Average reading: cells + drug, paclitaxel (NCI-2052H cells; Paclitaxel 4000 nM): 0.553; Average reading: cells + drug, paclitaxel (NCI-2052H cells; Paclitaxel 20,000 nM): 0.1647; % survival from untreated cells (NCI-2052H cells; paclitaxel 0.256 (nM per Table 97)): 83.84%; % survival from untreated cells (NCI-2052H cells; paclitaxel 1.28 (nM per Table 97)): 93.24%; % survival from untreated cells (NCI-2052H cells; paclitaxel 6.4 (nM per Table 97)): 90.43%; % survival from untreated cells (NCI-2052H cells; paclitaxel 32 (nM per Table 97)): 34.17%; % survival from untreated cells (NCI-2052H cells; paclitaxel 160 (nM per Table 97)): 25.61%; % survival from untreated cells (NCI-2052H cells; paclitaxel 800 (nM per Table 97)): 25.41%; % survival from untreated cells (NCI-2052H cells; paclitaxel 4000 (nM per Table 97)): 32.48%; % survival from untreated cells (NCI-2052H cells; paclitaxel 20,000 (nM per Table 97)): 9.67%; % survival (cells + drug) (NCI-28H cells [1]; Paclitaxel 0.13 nM): 102.50%; Average readings: cells + drug (NCI-28H cells [1]; Paclitaxel 0.13 nM): 1.56; % survival (cells + drug) (NCI-28H cells [1]; Paclitaxel 0.68 nM): 86.98%; Average readings: cells + drug (NCI-28H cells [1]; Paclitaxel 0.68 nM): 1.33; % survival (cells + drug) (NCI-28H cells [1]; Paclitaxel 3.5 nM): 89.85%; Average readings: cells + drug (NCI-28H cells [1]; Paclitaxel 3.5 nM): 1.37; % survival (cells + drug) (NCI-28H cells [1]; Paclitaxel 16 nM): 84.47%; Average readings: cells + drug (NCI-28H cells [1]; Paclitaxel 16 nM): 1.29; % survival (cells + drug) (NCI-28H cells [1]; Paclitaxel 80 nM): 71.81%; Average readings: cells + drug (NCI-28H cells [1]; Paclitaxel 80 nM): 1.10; % survival (cells + drug) (NCI-28H cells [1]; Paclitaxel 400 nM): 66.39%; % survival (cells + drug) (NCI-28H cells [1]; Paclitaxel 2000 nM): 62.43%; % survival (cells + drug) (NCI-28H cells [1]; Paclitaxel 10,000 nM): 60.71%

For `N.N.[Cl][Pt][Cl]` [cisplatin], which “Average reading: cells + cisplatin” value (NCI-28H cells [1]; Cisplatin 0.0013 μM) is on record?
Its value is 1.37.

What about the “Average reading: cells + cisplatin” value (NCI-28H cells [1]; Cisplatin 0.0064 μM) of the same compound?
Its value is 1.19.

And the “Average reading: cells + cisplatin” value (NCI-28H cells [1]; Cisplatin 0.8 μM)?
The value was 1.23.

What about the “Average reading: cells + cisplatin” value (NCI-28H cells [1]; Cisplatin 4 μM) of the same compound?
The value was 1.18.

What about the “Average reading: cells + cisplatin” value (NCI-28H cells [1]; Cisplatin 20 μM) of the same compound?
The value was 0.48.

And the “Average reading: cells + cisplatin” value (NCI-28H cells [1]; Cisplatin 100 μM)?
Its value is 0.59.

And the “% survival from untreated cells (cells + cisplatin)” value (from here on “% survival … (cells + cisplatin)”) (NCI-28H cells [1]; cisplatin 0.0013 (μM per Table 64))?
The value was 91.07%.

What about the “% survival … (cells + cisplatin)” value (NCI-28H cells [1]; cisplatin 0.0064 (μM per Table 64)) of the same compound?
The value was 79.21%.

What about the “% survival … (cells + cisplatin)” value (NCI-28H cells [1]; cisplatin 0.032 (μM per Table 64)) of the same compound?
Its value is 76.66%.

What about the “% survival … (cells + cisplatin)” value (NCI-28H cells [1]; cisplatin 0.16 (μM per Table 64)) of the same compound?
Its value is 79.74%.

What about the “% survival … (cells + cisplatin)” value (NCI-28H cells [1]; cisplatin 0.8 (μM per Table 64)) of the same compound?
Its value is 82.09%.

And the “% survival … (cells + cisplatin)” value (NCI-28H cells [1]; cisplatin 4 (μM per Table 64))?
The value was 78.41%.

And the “% survival … (cells + cisplatin)” value (NCI-28H cells [1]; cisplatin 20 (μM per Table 64))?
Its value is 31.99%.

What about the “% survival … (cells + cisplatin)” value (NCI-28H cells [1]; cisplatin 100 (μM per Table 64)) of the same compound?
The value was 39.35%.

With `N.N.O=C([O-])C1(C(=O)[O-])CCC1.[Pt+2]` [carboplatin] as the compound, how does the “% survival from untreated cells: cells + drug, carboplatin” value (shortened to “% survival … carboplatin”) (NCI-28H cells [2]; carboplatin 0.006 μM) read?
Its value is 90.84% and 94.28%.

What about the “Average reading: cells + drug, carboplatin” value (“Average reading … carboplatin” for short) (NCI-28H cells [2]; carboplatin 0.006 μM) of the same compound?
Its value is 1.504.

What about the “% survival … carboplatin” value (NCI-28H cells [2]; carboplatin 0.8 μM) of the same compound?
The value was 85.98% and 87.53%.

And the “Average reading … carboplatin” value (NCI-28H cells [2]; carboplatin 0.8 μM)?
The value was 1.4238.

And the “% survival … carboplatin” value (NCI-28H cells [2]; carboplatin 4 μM)?
Its value is 96.93% and 93.62%.

And the “Average reading … carboplatin” value (NCI-28H cells [2]; carboplatin 4 μM)?
The value was 1.605.

And the “% survival … carboplatin” value (NCI-28H cells [2]; carboplatin 20 μM)?
Its value is 104.81% and 99.20%.

And the “Average reading … carboplatin” value (NCI-28H cells [2]; carboplatin 20 μM)?
The value was 1.7355.

And the “% survival … carboplatin” value (NCI-28H cells [2]; carboplatin 100 μM)?
Its value is 83.82% and 79.53%.

What about the “Average reading … carboplatin” value (NCI-28H cells [2]; carboplatin 100 μM) of the same compound?
Its value is 1.388.

What about the “% survival … carboplatin” value (NCI-28H cells [2]; carboplatin 500 μM) of the same compound?
Its value is 37.38% and 35.14%.

What about the “Average reading … carboplatin” value (NCI-28H cells [2]; carboplatin 500 μM) of the same compound?
Its value is 0.6189.

talc was tested. Which “cytotoxic effect on NCI-28H cells (comparison)” value (NCI-28H cells [2]) did it give?
The value was “clear cytotoxic effect”.
